This is an account of results in PubChem BioAssay (NCI).

Among the test systems are HOP-62 NSCLC; MOLT-4 leukemia; SN12C renal; UACC-62 melanoma; UACC-257 melanoma; HOP-92 NSCLC; SR leukemia; SK-MEL-2 melanoma; OVCAR-8 ovarian; SK-OV-3 ovarian; NCI/ADR-RES ovarian; SK-MEL-5 melanoma.
Holding throughout (assay): NCI tumour cell line growth inhibition, 48 h

Structures are written as SMILES.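 Exposure lasted 48 hours, with cells grown in 96-well plates and compounds tested at five concentrations. Definition used: TGI = concentration required for complete inhibition of growth.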

Take `CSC1=C(C)S/C(=C\c2ccc(/C=C3\SC(C)=C(SC)S3)cc2)S1`: the TGI in the assay with HOP-62 NSCLC, in the assay on MOLT-4 leukemia, with SN12C renal, with UACC-62 melanoma, in the assay on UACC-257 melanoma and in the assay on HOP-92 NSCLC was over 100 µM each time. Moreover, the TGI with SR leukemia, with SK-MEL-2 melanoma, with OVCAR-8 ovarian, with SK-OV-3 ovarian, with NCI/ADR-RES ovarian and in the assay on SK-MEL-5 melanoma was over 100 µM each time.

As for `CCC(C)C1=C(O)[N+]2([O-])Oc3ccc(-c4c(O)c(O)c(-c5ccc(O)cc5)c(OC(C)=O)c4OC(C)=O)cc3OC2(C(C)CC)C(=O)N1O` (stereo unspecified), the TGI with MOLT-4 leukemia, in the assay on SN12C renal, with UACC-62 melanoma, in the assay with UACC-257 melanoma, in the assay with SR leukemia and in the assay on SK-MEL-2 melanoma was over 50 µM each time. Further, the TGI in the assay with OVCAR-8 ovarian, with SK-OV-3 ovarian, with NCI/ADR-RES ovarian and in the assay on SK-MEL-5 melanoma was over 50 µM throughout.

`COC1/C=C/C(C)C(C(C)C(OC)C(C)CCC(=O)C(C)C(CC(=O)O)OC)OC(=O)/C=C/C=C(\C)CC(OC)C(OC)C2=CC(=O)O[C@@H](C(C)C(OC)CC(OC)/C=C/C(C)C(O)C1)[C@H]2O` (stereo partly specified): the TGI in the assay with HOP-62 NSCLC was 0.468 µM; in the assay on MOLT-4 leukemia, over 1.07 µM; with SN12C renal it was over 1.07 µM; in the assay on UACC-62 melanoma, over 1.07 µM; in the assay with UACC-257 melanoma, over 1.07 µM; with HOP-92 NSCLC, 0.0917 µM. In addition, the TGI with SR leukemia is over 1.07 µM; with SK-MEL-2 melanoma it was 0.625 µM; with OVCAR-8 ovarian, 0.132 µM; in the assay with SK-OV-3 ovarian it was 0.289 µM; in the assay on NCI/ADR-RES ovarian it was 0.47 µM; with SK-MEL-5 melanoma, 0.242 µM.

Turning to `COC(=O)/N=[N+](\[O-])C(c1ccc(Cl)cc1)c1ccc(Cl)cc1`, the TGI in the assay on MOLT-4 leukemia, in the assay on SN12C renal, in the assay on UACC-62 melanoma, in the assay on UACC-257 melanoma, in the assay on SR leukemia and with SK-MEL-2 melanoma was over 100 µM each time. In addition, the TGI in the assay with OVCAR-8 ovarian is over 100 µM; in the assay with SK-OV-3 ovarian it was over 100 µM; in the assay with NCI/ADR-RES ovarian, over 100 µM; in the assay with SK-MEL-5 melanoma, 78.6 µM.

In the case of `O=S(=O)(O)c1ccc(N=Nc2c(O)ccc3ccccc23)cc1`, the TGI with HOP-62 NSCLC, in the assay with MOLT-4 leukemia, in the assay on SN12C renal, in the assay with UACC-62 melanoma, with UACC-257 melanoma and in the assay on HOP-92 NSCLC was over 100 µM in each case. Further, the TGI in the assay on SR leukemia, in the assay with SK-MEL-2 melanoma, in the assay on OVCAR-8 ovarian, with SK-OV-3 ovarian, with NCI/ADR-RES ovarian and in the assay on SK-MEL-5 melanoma was over 100 µM each time.

Consider `CCOC(=O)Nn1cnnc1Cc1ccccc1`, for which the TGI in the assay on HOP-62 NSCLC, in the assay with MOLT-4 leukemia, in the assay on SN12C renal, in the assay on UACC-62 melanoma, with UACC-257 melanoma and in the assay with HOP-92 NSCLC was over 100 µM in each case. Moreover, the TGI in the assay with SR leukemia, in the assay on SK-MEL-2 melanoma, with OVCAR-8 ovarian, with SK-OV-3 ovarian, in the assay on NCI/ADR-RES ovarian and in the assay with SK-MEL-5 melanoma was over 100 µM in each case.

Consider `CC(=O)N1c2ccccc2C2=NN=C(N(C)C)SC21` (stereo unspecified), for which the TGI with HOP-62 NSCLC is 23.4 µM; with MOLT-4 leukemia, over 100 µM; in the assay on SN12C renal, 6.93 µM; in the assay with UACC-257 melanoma it was 12.7 µM; in the assay on SR leukemia it was 21.2 µM; in the assay on SK-MEL-2 melanoma, 6.36 µM. For the same compound, the figures for the TGI in the assay on OVCAR-8 ovarian and with NCI/ADR-RES ovarian were 12.1 µM and 10.4 µM, respectively.

Regarding `COC(=O)C1=C(O)C(C(=O)OC)[C@]2(O)[C@H](C(=O)OC)[C@H]1C[C@@H](c1ccc(Cl)cc1Cl)[C@H]2C(=O)OC` (stereo partly specified), the TGI was determined as 20.9 µM with HOP-62 NSCLC; 8.98 µM with MOLT-4 leukemia; 22.2 µM in the assay on SN12C renal; 35.3 µM in the assay on UACC-62 melanoma; 28.7 µM in the assay on UACC-257 melanoma; 23.8 µM with HOP-92 NSCLC. Also, the TGI is 19.2 µM with SR leukemia; 20.3 µM with SK-MEL-2 melanoma; 18 µM with OVCAR-8 ovarian; 47.9 µM in the assay on SK-OV-3 ovarian; 38.2 µM in the assay with NCI/ADR-RES ovarian; 16.8 µM in the assay on SK-MEL-5 melanoma.

On to `C[C@@H]1C(=O)O[C@@H]2C[C@@]1(C)[C@@H]1C(=O)C3(O)OC14C2(C)OC(=O)[C@@]4(O)CCC1C3C(O)C=C2CC=CC(=O)[C@@]21C` (stereo partly specified), for which the TGI is over 100 µM in the assay on HOP-62 NSCLC; 57.1 µM with MOLT-4 leukemia; over 100 µM in the assay on SN12C renal; over 100 µM with UACC-62 melanoma; over 100 µM with UACC-257 melanoma; 47.8 µM in the assay with SR leukemia. Besides, the TGI in the assay on SK-MEL-2 melanoma was 62.9 µM; in the assay with OVCAR-8 ovarian, over 100 µM; with SK-OV-3 ovarian it was over 100 µM; in the assay on NCI/ADR-RES ovarian it was over 100 µM; with SK-MEL-5 melanoma it was over 100 µM.

`N#CCN(Cc1ccccc1)[C@H]1CCC[C@]1(O)/C=C/c1ccc2c(c1)OCO2`: the TGI with HOP-62 NSCLC came to 82.6 µM; in the assay on MOLT-4 leukemia, 48.1 µM; in the assay on UACC-62 melanoma, 37.9 µM; in the assay with UACC-257 melanoma, 58 µM; with HOP-92 NSCLC, 60.9 µM; in the assay on SR leukemia, 40.2 µM. The TGI in the assay on SK-MEL-2 melanoma is 42.8 µM; in the assay on OVCAR-8 ovarian it was 32.5 µM; with SK-OV-3 ovarian, over 100 µM; in the assay on NCI/ADR-RES ovarian it was 42 µM; with SK-MEL-5 melanoma, 30.1 µM.

Take `CCOC(=O)C12C3CCC1C2C(=O)C3` (stereo unspecified): the TGI in the assay with HOP-62 NSCLC, in the assay with MOLT-4 leukemia, in the assay with SN12C renal, in the assay with UACC-62 melanoma, with UACC-257 melanoma and in the assay on SR leukemia was over 100 µM throughout. Also, the TGI with SK-MEL-2 melanoma, with OVCAR-8 ovarian, with SK-OV-3 ovarian, with NCI/ADR-RES ovarian and in the assay on SK-MEL-5 melanoma was over 100 µM throughout.

Consider `Cc1ccc(-n2nnc3c(NNc4ccccc4)n[nH]c(=O)c32)cc1`, for which the TGI with HOP-62 NSCLC, in the assay with MOLT-4 leukemia, in the assay on SN12C renal, with UACC-257 melanoma, in the assay on HOP-92 NSCLC and in the assay with SR leukemia was over 100 µM in each case. The TGI in the assay with SK-MEL-2 melanoma, in the assay on OVCAR-8 ovarian, with NCI/ADR-RES ovarian and in the assay with SK-MEL-5 melanoma was over 100 µM each time.
